Laboratory results as given in paper PMC9655717, “New Molecules of Diterpene Origin with Inhibitory Properties toward α-Glucosidase” (International Journal of Molecular Sciences, 2022).

Each compound was assayed against T1, yeast α-GLy (α-glucosidase, Sigma G0660) (Saccharomyces cerevisiae, UniProt P53341) (assay: biochemical). Conditions: IC50 ± SE, α-glucosidase inhibition, yeast α-glucosidase, 37°C, pH 6.8.
T1 construct: purchased Sigma G0660
Type: biochemical
Method: S1. Materials and Methods […]
glucosidase inhibition assay. α-Glucosidase enzyme inhibition assay was carried out in a 96-well microplate. The method’s principle based on the hydrolyzed reaction of 4-nitrophenyl-α-D-glucopiranoside with α-glucosidase enzyme into yellow 4- […]
p-Nitrophenyl α-D-Glucoside a- Gl ucosidas e α-D-Glucose + p- Nitrophenol α-Glucosidase inhibitory activity assay was performed following the modified method of Pistia Brueggeman and Hollingsworth with slight modification. Quinopimaric […]
concentrations of 256, 64, 16, 4 and 1 µg/mL. In a 96-well plate, a reaction mixture containing 20 μL of phosphate buffer (100 mM; pH 6.8), 20 μL of α-glucosidase (0.3 U/mL, Sigma G0660) (this concentration was determined by a series of α-glucosidase […]
linearity between the enzyme concentration and the absorbance of yellow color mixture after reaction which was approximately 5-fold higher than the back ground and at least […]
concentrations was pre-incubated for 10 min at 37°C. Then 20 μL of […] p-nitrophenyl α-D-glucopyranoside (Sigma N1377) was added to the mixture as a substrate. After further incubation at 37°C for 30 min, the reaction was stopped by adding 80 μL of 0.1 […]
solution were prepared using the phosphate buffer […]; pH 6.8. […]
as a positive control and water as negative control. The yellow color produced was quantitated by colorimetric analysis and reading the absorbance at 410 nm. Each experiment was performed in triplicates, along with appropriate blanks. The solvent DMSO was use as negative control to evaluate its effect on α-glucosidase activity. […]
or substrate in negative control. Back ground was determined by volume of buffer as […]
The % inhibition has been obtained using the formula:
% inhibition = {Absorbance (control) –Absorbance (sample)}/Absorbance (control) IC50 value is defined as the concentration of samples inhibiting 50% of α-glucosidase activity under the stated assay conditions. […]

T1 sequence (P53341 whole entry): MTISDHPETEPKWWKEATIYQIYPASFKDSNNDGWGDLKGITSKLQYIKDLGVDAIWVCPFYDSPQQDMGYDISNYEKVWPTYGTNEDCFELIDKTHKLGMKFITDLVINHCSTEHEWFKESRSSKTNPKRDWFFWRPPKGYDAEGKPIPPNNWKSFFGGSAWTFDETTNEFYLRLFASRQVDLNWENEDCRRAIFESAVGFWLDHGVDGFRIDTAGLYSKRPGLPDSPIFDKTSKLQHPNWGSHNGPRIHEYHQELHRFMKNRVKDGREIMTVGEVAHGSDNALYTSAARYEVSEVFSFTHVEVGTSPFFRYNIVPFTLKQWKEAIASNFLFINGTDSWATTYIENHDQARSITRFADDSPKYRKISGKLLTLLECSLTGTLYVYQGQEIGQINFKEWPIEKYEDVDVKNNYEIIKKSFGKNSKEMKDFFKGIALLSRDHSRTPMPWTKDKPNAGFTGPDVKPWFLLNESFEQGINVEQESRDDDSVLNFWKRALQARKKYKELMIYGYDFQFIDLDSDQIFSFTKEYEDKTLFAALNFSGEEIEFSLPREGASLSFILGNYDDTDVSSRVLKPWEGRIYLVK

Row | Compound | IC50
1 | COC(=O)[C@]1(C)CCC[C@]2(C)[C@H]3C[C@@H]4[C@H]5[C@@H]6CC(Br)C(=O)[C@H]5[C@@]3(CC[C@H]21)C[C@@]4(C(C)C)O6 (some centres unmarked) [Compound 25] | > 255 µM
2 | COC(=O)[C@]1(C)CCC[C@]2(C)[C@H]3C[C@H]4C(C(C)C)=C[C@]3(CC[C@H]21)[C@H]1[C@@H]4[C@@H](OC(=O)c2cccnc2)CC[C@@H]1OC(=O)c1cccnc1 [Compound 24] | > 255 µM
3 | COC(=O)[C@]1(C)CCC[C@]2(C)[C@H]3C[C@H]4C(C(C)C)=C[C@]3(CC[C@H]21)[C@H]1[C@@H]4[C@@H](OCCC#N)CC[C@@H]1OCCC#N [Compound 22] | > 255 µM
4 | COC(=O)[C@]1(C)CCC[C@]2(C)[C@H]3C[C@H]4C(C(C)C)=C[C@]3(CC[C@H]21)[C@@H]1C(=O)CC[C@H](OC(C)=O)[C@@H]14 [Compound 15] | > 255 µM
5 | COC(=O)[C@]1(C)CCC[C@]2(C)[C@H]3C[C@H]4C(C(C)C)=C[C@]3(CC[C@H]21)[C@@H]1c2[nH]c3ccccc3c2-c2c([nH]c3ccccc23)[C@@H]14 [Compound 34] | > 255 µM
6 | COC(=O)[C@]1(C)CCC[C@]2(C)[C@H]3C[C@H]4C(C(C)C)=C[C@]3(CC[C@H]21)[C@@H]1C(=O)CC[C@H](OC(=O)CCCC(=O)O)[C@@H]14 [Compound 18] | > 255 µM
7 | COC(=O)[C@]1(C)CCC[C@]2(C)[C@H]3C[C@@H]4[C@H]5[C@@H]6Cc7c([nH]c8ccccc78)[C@H]5[C@@]3(CC[C@H]21)C[C@@]4(C(C)C)O6 [Compound 33] | 65.98 ± 0.03 µM
8 | COC(=O)[C@]1(C)CCC[C@]2(C)[C@H]3C[C@@H]4[C@H]5[C@@H]6CCC(=O)[C@H]5[C@@]3(CC[C@H]21)C[C@@]4(C(C)C)O6 [Compound 3, 1β,13α-epoxy methyldihydroquinopimarate] | > 255 µM
9 | COC(=O)[C@]1(C)CCC[C@]2(C)[C@H]3C[C@@H]4[C@H]5[C@@H]6CC7NC(=S)NC7[C@H]5[C@@]3(CC[C@H]21)C[C@@]4(C(C)C)O6 (some centres unmarked) [Compound 32] | 9.66 ± 0.77 µM
10 | COC(=O)[C@]1(C)CCC[C@]2(C)[C@H]3C[C@H]4C(C(C)C)=C[C@]3(CC[C@H]21)[C@@H]1C(=O)CC[C@H](OC(=O)c2cccnc2)[C@@H]14 [Compound 19] | > 255 µM
11 | CC(C)C1=CC23CCC4C(C)(C(=O)O)CCCC4(C)C2CC1c1c(O)ccc(O)c13 (centres unmarked) [Compound 49] | > 255 µM
12 | COC(=O)C(C)NC(=O)[C@]1(C)CCC[C@]2(C)[C@H]3C[C@H]4C(C(C)C)=C[C@]3(CC[C@H]21)[C@@H]1C(=O)CCC(=O)[C@@H]14 (some centres unmarked) [Compound 12] | > 255 µM
13 | COC(=O)[C@]1(C)CCC[C@]2(C)[C@H]3C[C@H]4C(C(C)C)=C[C@]3(CC[C@H]21)[C@@H]1C(=O)CC[C@H](OC(=O)CCC(=O)O)[C@@H]14 [Compound 17] | > 255 µM
14 | CC(C)C1=C[C@@]23CC[C@@H]4[C@](C)(CCC[C@@]4(C)C(=O)O)[C@H]2C[C@@H]1[C@H]1C(=O)CCC(=O)[C@H]13 [Compound 8, 2,3-dihydroquinopimaric acid] | 35.6 ± 0.92 µM
15 | COC(=O)[C@]1(C)CCC[C@]2(C)[C@H]3C[C@H]4C(C(C)C)=C[C@]3(CC[C@H]21)[C@H]1[C@@H]4[C@@H](O)CC[C@@H]1O [Compound 21] | > 255 µM
16 | CCOC(=O)c1c(C)[nH]c2c3c(c(O)cc12)[C@H]1C[C@@H]2[C@@]4(C)CCC[C@@](C)(C(=O)OC)[C@@H]4CC[C@@]32C=C1C(C)C [Compound 43, Methyl 1-Hydroxy-13-Isopropyl-1′-(Ethoxycarbonyl)-7,10a,2′-Trimethyl-5,6,6b,7,8,9,10,10a,10b,11,12,13-Dodecahydro-12,4b-Ethenophenanthro-[2,1-g]indole-7-Carboxylate] | > 255 µM
17 | CC(C)C1=C[C@@]23CC[C@@H]4[C@](C)(CCC[C@@]4(C)C(=O)O)[C@H]2C[C@@H]1[C@H]1C(=O)C=CC(=O)[C@H]13 [Compound 1, quinopimaric acid] | 59.59 ± 0.18 µM
18 | COC(=O)[C@]1(C)CCC[C@]2(C)[C@H]3C[C@@H]4[C@H]5[C@@H]6CCC(=NOCCC#N)[C@H]5[C@@]3(CC[C@H]21)C[C@@]4(C(C)C)O6 [Compound 5] | > 255 µM
19 | COC(=O)[C@]1(C)CCC[C@@]2(C)[C@H]1CC[C@]13C=C(C(C)C)[C@H](C[C@H]21)C1=C3C(=O)C=CC1=O [Compound 41, 1a,4a-dehydroquinopimaric acid methyl ester] | > 255 µM
20 | CC(C)C1=CC23CCC4C(C)(C(=O)O)CCCC4(C)C2CC1C1=C3C(=O)C=CC1=O (centres unmarked) [Compound 40, 1a,4a-dehydroquinopimaric acid] | 7.09 ± 0.12 µM
21 | COC(=O)C(CCSC)NC(=O)[C@]1(C)CCC[C@]2(C)[C@H]3C[C@H]4C(C(C)C)=C[C@]3(CC[C@H]21)[C@@H]1C(=O)CCC(=O)[C@@H]14 (some centres unmarked) [Compound 13] | > 255 µM
22 | COC(=O)[C@]1(C)CCC[C@]2(C)[C@H]3C[C@@H]4[C@H]5[C@@H]6CCC(=NO)[C@H]5[C@@]3(CC[C@H]21)C[C@@]4(C(C)C)O6 [Compound 4] | > 255 µM
23 | COC(=O)[C@]1(C)CCC[C@]2(C)[C@H]3C[C@@H]4[C@H]5[C@@H]6CCC(=O)N[C@H]5[C@@]3(CC[C@H]21)C[C@@]4(C(C)C)O6 [Compound 39] | 44.8 ± 0.96 µM
24 | C#CCNC(=O)[C@]1(C)CCC[C@]2(C)[C@H]3C[C@H]4C(C(C)C)=C[C@]3(CC[C@H]21)[C@@H]1C(=O)CCC(=O)[C@@H]14 [Compound 10] | > 255 µM
25 | COC(=O)[C@]1(C)CCC[C@]2(C)[C@H]3C[C@H]4C(C(C)C)=C[C@]3(CC[C@H]21)[C@@H]1C(=O)CC[C@H](O)[C@@H]14 [Compound 14] | > 255 µM
26 | COC(=O)[C@]1(C)CCC[C@]2(C)[C@H]3C[C@@H]4[C@H]5[C@@H]6Cc7cn[nH]c7[C@H]5[C@@]3(CC[C@H]21)C[C@@]4(C(C)C)O6 [Compound 31] | > 255 µM
27 | CC(C)C1=C[C@@]23CC[C@H]4[C@](C)(CO)CCC[C@]4(C)[C@H]2C[C@@H]1[C@@H]1[C@H]3[C@@H](O)CC[C@@H]1O [Compound 2] | > 255 µM
28 | COC(=O)[C@]1(C)CCC[C@]2(C)[C@H]3C[C@H]4C(C(C)C)=C[C@]3(CC[C@H]21)[C@@H]1C(=O)CC[C@H](OCCC#N)[C@@H]14 [Compound 16] | > 255 µM
29 | COC(=O)[C@]1(C)CCC[C@]2(C)[C@H]3C[C@H]4C(C(C)C)=C[C@]3(CC[C@H]21)[C@H]1[C@@H]4[C@@H](OCCC(N)=NO)CC[C@@H]1OCCC(N)=NO [Compound 23] | > 255 µM
30 | CC(C)C1=C[C@@]23CC[C@@H]4[C@](C)(CCC[C@@]4(C)C(=O)N4CCCNCC4)[C@H]2C[C@@H]1[C@H]1C(=O)CCC(=O)[C@H]13 [Compound 11] | > 255 µM

Same assay, conditions: ratio of α-GLy IC50 values versus acarbose

Row | Compound | times more active (potent) than acarbose
31 | CC(C)C1=C[C@@]23CC[C@@H]4[C@](C)(CCC[C@@]4(C)C(=O)O)[C@H]2C[C@@H]1[C@H]1C(=O)C=CC(=O)[C@H]13 [Compound 1, quinopimaric acid] | three times higher

Same assay, conditions: yeast α-glucosidase, 37°C, pH 6.8; read-out: IC50 ± SE, α-glucosidase inhibition

Row | IC50 | Compound
32 | 7.28 ± 0.4 µM | COC(=O)c1c(C)[nH]c2c3c(c(OC(C)=O)cc12)[C@H]1C[C@@H]2[C@@]4(C)CCC[C@@](C)(C(=O)OC)[C@@H]4CC[C@@]32C=C1C(C)C [Compound 37]
33 | 12.7 ± 0.21 µM | COC(=O)[C@]1(C)CCC[C@]2(C)[C@H]3C[C@@H]4[C@H]5[C@@H]6CC(=Cc7ccc(OC)c(OC)c7)C(=O)[C@H]5[C@@]3(CC[C@H]21)C[C@@]4(C(C)C)O6 [Compound 28]
34 | 13.08 ± 0.01 µM | COC(=O)[C@]1(C)CCC[C@]2(C)[C@H]3C[C@@H]4[C@H]5[C@@H]6CC(=Cc7ccccc7)C(=O)[C@H]5[C@@]3(CC[C@H]21)C[C@@]4(C(C)C)O6 [Compound 26]
35 | 7.95 ± 0.2 µM | COC(=O)c1c(C)[nH]c2c3c(c(O)cc12)[C@H]1C[C@@H]2[C@@]4(C)CCC[C@@](C)(C(=O)O)[C@@H]4CC[C@@]32C=C1C(C)C [Compound 35]
36 | 1.63 ± 0.006 µM | COC(=O)[C@]1(C)CCC[C@]2(C)[C@H]3C[C@H]4C(C(C)C)=C[C@]3(CC[C@H]21)[C@@H]1C(=O)C(=Cc2ccc(OC)cc2)C[C@H](O)[C@@H]14 [Compound 6]
37 | 35.2 ± 0.71 µM | CC(C)C1=C[C@@]23CC[C@@H]4[C@](C)(CCC[C@@]4(C)C(=O)NCCCCNCCCN)[C@H]2C[C@@H]1[C@H]1C(=O)CCC(=O)[C@H]13 [Compound 9]
38 | > 255 µM | COC(=O)[C@]1(C)CCC[C@]2(C)[C@H]3C[C@@H]4[C@H]5[C@@H]6CC(=Cc7ccc(OC)cc7)C(=O)[C@H]5[C@@]3(CC[C@H]21)C[C@@]4(C(C)C)O6 [Compound 27]
39 | 2.5 ± 0.011 µM | COC(=O)[C@]1(C)CCC[C@]2(C)[C@H]3C[C@H]4C(C(C)C)=C[C@]3(CC[C@H]21)[C@@H]1C(=O)C(=Cc2ccco2)C[C@H](O)[C@@H]14 [Compound 7]
40 | 1.63 ± 0.041 µM | COC(=O)[C@]1(C)CCC[C@]2(C)[C@H]3C[C@@H]4[C@H]5[C@@H]6CC(=Cc7ccco7)C(=O)[C@H]5[C@@]3(CC[C@H]21)C[C@@]4(C(C)C)O6 [Compound 29]
41 | 38.8 ± 0.33 µM | COC(=O)[C@]1(C)CCC[C@]2(C)[C@H]3C[C@@H]4[C@H]5[C@@H]6CC(=Cc7cccnc7)C(=O)[C@H]5[C@@]3(CC[C@H]21)C[C@@]4(C(C)C)O6 [Compound 30]
